Test results from patent US10738015B2, “1,3-diaza-spiro-[3.4]-octane derivatives” (priority 2017, dated 2020).
Like-named read-outs stand apart in the source and are kept apart here.

Legend:
[1] = target: human mu-opioid peptide (hMOP) receptor (Homo sapiens (Human), UniProt P35372); assay: hMOP receptor binding assay (SPA)
Method: Human Mu-Opioidpeptide (hMOP) Receptor Binding Assay
The hMOP receptor binding assay was performed as homogeneous SPA-assay (scintillation proximity assay) using the assay buffer 50 mM TRIS-HCl (pH 7.4) supplemented with 0.052 mg/ml bovine serum albumin (Sigma-Aldrich Co. St. Louis, Mo.). […] The assay was started by adding wheat germ agglutinin coated SPA beads (GE Healthcare UK Ltd. Buckinghamshire. UK) which had been preloaded with hMOP receptor membranes (PerkinElmer Life Sciences. Inc. Boston, Mass. USA).

[2] = target: human nociceptin/orphanin FQ peptide (hNOP) receptor (Homo sapiens (Human), UniProt P41146); assay: hNOP receptor binding assay (SPA)
Method: Human Nociceptin/Orphanin FQ Peptide (hNOP) Receptor Binding Assay
The hNOP receptor binding assay was performed as homogeneous SPA-assay (scintillation proximity assay) using the assay buffer 50 mM TRIS-HCl, 10 mM MgCl2, 1 mM EDTA (pH 7.4). The final assay volume (250 μl/well) included 0.5 nM of [leucyl-^3H]nociceptin as ligand (PerkinElmer Life Sciences. Inc. Boston, Mass. USA) and either test compound in dilution series or 1 μM unlabelled nociceptin for determination of unspecific binding. The test compound was diluted with 25% DMSO in H2O to yield a final 0.5% DMSO concentration which also served as a respective vehicle control. The assay was started by adding wheat germ agglutinin coated SPA beads (GE Healthcare UK Ltd. Buckinghamshire. UK) which had been preloaded with hNOP receptor membranes (PerkinElmer Life Sciences. Inc. Boston, Mass. USA). After incubation for 60 minutes at RT and centrifugation for 20 minutes at 500 rpm the signal rate was measured by means of a 1450 Microbeta Trilux ß-counter (PerkinElmer Life Sciences/Wallac. Turku. Finland). Half-maximal inhibitory concentration (IC50) values reflecting 50% displacement of [^3H]nociceptin-specific receptor binding were calculated by nonlinear regression analysis and Ki values were calculated by using the Cheng-Prusoff equation. (Cheng and Prusoff. 1973).

[3] = Ki, displacement of [3H]naloxone, hMOP receptor membranes, read-out: hMOP Ki [nM] or % inhibition at 1 μM
[4] = Ki, displacement of [leucyl-3H]nociceptin, hNOP receptor membranes, read-out: hNOP Ki [nM] or % inhibition at 1 μM

human mu-opioid peptide (hMOP) receptor, sequence (P35372 whole entry): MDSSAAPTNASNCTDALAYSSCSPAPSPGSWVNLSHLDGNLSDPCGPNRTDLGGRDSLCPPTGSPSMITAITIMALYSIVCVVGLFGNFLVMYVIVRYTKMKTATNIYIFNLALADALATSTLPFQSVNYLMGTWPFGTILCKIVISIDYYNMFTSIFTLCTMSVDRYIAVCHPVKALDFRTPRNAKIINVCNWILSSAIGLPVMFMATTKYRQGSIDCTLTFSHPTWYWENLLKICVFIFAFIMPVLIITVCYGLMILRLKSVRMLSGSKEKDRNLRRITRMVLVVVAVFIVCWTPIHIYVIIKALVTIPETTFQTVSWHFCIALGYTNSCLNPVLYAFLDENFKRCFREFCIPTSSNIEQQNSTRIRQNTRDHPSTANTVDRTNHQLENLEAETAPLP

Row | SMILES | Ki [1, 3] [nM] | Ki [2] [nM] | Ki [2, 4] [nM] | inhibition at 1 µM ([1]; read-out: hMOP Ki [nM] or % inhibition at 1 μM) [%] | Ki [1] [nM]
1 | Cc1cc(C#N)ncc1N1C[C@]2(C[C@](c3cccc(F)c3)(N(C)C)C2)N(CC2CC2)C1=O [SC-15, cis-5-(5-(cyclopropylmethyl)-2-(dimethylamino)-2-(3-fluorophenyl)-6-oxo-5,7-diazaspiro[3.4]octan-7-yl)-4-methylpicolinonitrile] | 1330 | 13 |  |  | 
2 | Cc1cc(C#N)cnc1N1C[C@]2(C[C@](c3cccc(F)c3)(N(C)C)C2)N(CC2CC2)C1=O [SC-16, Cis-6-(5-(cyclopropylmethyl)-2-(dimethylamino)-2-(3-fluorophenyl)-6-oxo-5,7-diazaspiro[3.4]octan-7-yl)-5-methylnicotinonitrile] | 1320 |  | 31 |  | 
3 | CN(C)[C@]1(c2cccc(F)c2)C[C@@]2(CN(c3ccc(OC(F)(F)F)cn3)C(=O)N2CC2CC2)C1 [SC-18, Cis-5-(cyclopropylmethyl)-2-(dimethylamino)-2-(3-fluorophenyl)-7-(5-(trifluoromethoxy)pyridin-2-yl)-5,7-diazaspiro[3.4]octan-6-one] | 805 |  | 55 |  | 
4 | Cc1cc(N2CCOCC2)ncc1N1C[C@]2(C[C@](c3ccccc3)(N(C)C)C2)NC1=O [SC-19, Cis-2-(dimethylamino)-7-(4-methyl-6-morpholinopyridin-3-yl)-2-phenyl-5,7-diazaspiro[3.4]octan-6-one] | 5890 |  | 1810 |  | 
5 | Cc1cc(C(C)(C)O)ncc1N1C[C@]2(C[C@](c3ccccc3)(N(C)C)C2)NC1=O [SC-20, Cis-2-(dimethylamino)-7-(6-(2-hydroxypropan-2-yl)-4-methylpyridin-3-yl)-2-phenyl-5,7-diazaspiro[3.4]octan-6-one] | 5840 |  | 1160 |  | 
6 | Cc1cc(C(C)(C)O)ccc1N1C[C@]2(C[C@](c3ccccc3)(N(C)C)C2)NC1=O [SC-21, Cis-2-(dimethylamino)-7-(4-(2-hydroxypropan-2-yl)-2-methylphenyl)-2-phenyl-5,7-diazaspiro[3.4]octan-6-one] | 3580 |  | 775 |  | 
7 | Cc1cc(C(F)F)ncc1N1C[C@]2(C[C@](c3cccc(F)c3)(N(C)C)C2)NC1=O [SC-22, cis-7-(6-(difluoromethyl)-4-methylpyridin-3-yl)-2-(dimethylamino)-2-(3-fluorophenyl)-5,7-diazaspiro[3.4]octan-6-one] |  |  | 380 | 11 | 
8 | CN(C)[C@]1(c2cccc(F)c2)C[C@@]2(CN(c3ccc(OC(F)(F)F)cn3)C(=O)N2CC2(F)COC2)C1 [SC-23, Cis- -2-(dimethylamino)-5-((3-fluorooxetan-3-yl)methyl)-2-(3-fluorophenyl)-7-(5-(trifluoromethoxy)pyridin-2-yl)-5,7-diazaspiro[3.4]octan-6-one] | 545 |  | 25 |  | 
9 | Cc1cc(C(F)F)ncc1N1C[C@]2(C[C@](c3cccc(F)c3)(N(C)C)C2)N(CC2CC2)C1=O [SC-24, Cis-5-(cyclopropylmethyl)-7-(6-(difluoromethyl)-4-methylpyridin-3-yl)-2-(dimethylamino)-2-(3-fluorophenyl)-5,7-diazaspiro[3.4]octan-6-one] | 1180 |  | 23 |  | 
10 | CN(C)[C@]1(c2cccc(F)c2)C[C@@]2(CN(c3ccc(OC(F)(F)F)cn3)C(=O)N2CC2(F)CC2)C1 [SC-26, Cis-2-(dimethylamino)-5-((1-fluorocyclopropyl)methyl)-2-(3-fluorophenyl)-7-(5-(trifluoromethoxy)pyridin-2-yl)-5,7-diazaspiro[3.4]octan-6-one] | 1020 |  | 91 |  | 
11 | CN(C)[C@]1(c2cccc(F)c2)C[C@@]2(CN(c3ccc(OC(F)(F)F)cn3)C(=O)N2CC2(O)CCC2)C1 [SC-27, Cis-2-(dimethylamino)-2-(3-fluorophenyl)-5-((1-hydroxycyclobutyl)methyl)-7-(5-(trifluoromethoxy)pyridin-2-yl)-5,7-diazaspiro[3.4]octan-6-one] | 335 |  | 12 |  | 
12 | CN(C)[C@]1(c2cccc(F)c2)C[C@@]2(CN(c3ccc(C(C)(C)O)cc3)C(=O)N2CC2CC2)C1 [SC-28, Cis-5-(cyclopropylmethyl)-2-(dimethylamino)-2-(3-fluorophenyl)-7-(4-(2-hydroxypropan-2-yl)phenyl)-5,7-diazaspiro[3.4]octan-6-one] | 78 |  | 46 |  | 
13 | CN(C)[C@]1(c2ccccc2)C[C@@]2(CN(c3ccc(OC(F)(F)F)cn3)C(=O)N2CC2(F)COC2)C1 [SC-29, Cis-2-(dimethylamino)-5-((3-fluorooxetan-3-yl)methyl)-2-phenyl-7-(5-(trifluoromethoxy)pyridin-2-yl)-5,7-diazaspiro[3.4]octan-6-one] | 65 |  | 16 |  | 
14 | CN(C)[C@]1(c2cccc(F)c2)C[C@@]2(CN(CCS(C)(=O)=O)C(=O)N2CC2CC2)C1 [SC-31, cis-5-(cyclopropylmethyl)-2-(dimethylamino)-2-(3-fluorophenyl)-7-(2-(methylsulfonyl)ethyl)-5,7-diazaspiro[3.4]octan-6-one] | 150 | 15 |  |  | 
15 | CN(C)[C@]1(c2ccccc2)C[C@@]2(CN(c3ccc(OC(F)(F)F)cn3)C(=O)N2CC2CC2)C1 [SC-32, Cis-5-(cyclopropylmethyl)-2-(dimethylamino)-2-phenyl-7-(5-(trifluoromethoxy)pyridin-2-yl)-5,7-diazaspiro[3.4]octan-6-one] | 100 |  | 36 |  | 
16 | CN(C)[C@]1(c2cccc(F)c2)C[C@@]2(CN(CC3(F)COC3)C(=O)N2CC2CC2)C1 [SC-33, Cis-5-(cyclopropylmethyl)-2-(dimethylamino)-7-((3-fluorooxetan-3-yl)methyl)-2-(3-fluorophenyl)-5,7-diazaspiro[3.4]octan-6-one] | 115 |  | 23 |  | 
17 | CN(C)[C@]1(c2ccccc2)C[C@@]2(CN(c3ccc(C4CC4)nc3)C(=O)N2CC2CC2)C1 [SC-34, Cis-5-(cyclopropylmethyl)-7-(6-cyclopropylpyridin-3-yl)-2-(dimethylamino)-2-phenyl-5,7-diazaspiro[3.4]octan-6-one] | 50 |  | 17 |  | 
18 | Cc1cc(C2CC2)ncc1N1C[C@]2(C[C@](c3ccccc3)(N(C)C)C2)N(CC2CC2)C1=O [SC-35, Cis-7-(6-cyclopropyl-4-methylpyridin-3-yl)-5-(cyclopropylmethyl)-2-(dimethylamino)-2-phenyl-5,7-diazaspiro[3.4]octan-6-one] | 185 |  | 19 |  | 
19 | Cc1cc(C2CC2)ncc1N1C[C@]2(C[C@](c3ccccc3)(N(C)C)C2)N(CC2(F)COC2)C1=O [SC-36, Cis-7-(6-cyclopropyl-4-methylpyridin-3-yl)-2-(dimethylamino)-5-((3-fluorooxetan-3-yl)methyl)-2-phenyl-5,7-diazaspiro[3.4]octan-6-one] | 330 |  | 10 |  | 
20 | COC(C)(C)CN1C[C@]2(C[C@](c3cccc(F)c3)(N(C)C)C2)N(CC2CC2)C1=O [SC-37, Cis-5-(cyclopropylmethyl)-2-(dimethylamino)-2-(3-fluorophenyl)-7-(2-methoxy-2-methylpropyl)-5,7-diazaspiro[3.4]octan-6-one] |  |  | 37 |  | 44
21 | CN(C)[C@]1(c2ccccc2)C[C@@]2(CN(c3cncc(C(F)(F)F)c3)C(=O)N2CC2CC2)C1 [SC-39, Cis-5-(cyclopropylmethyl)-2-(dimethylamino)-2-phenyl-7-[5-(trifluoromethyl)pyridin-3-yl]-5,7-diazaspiro[3.4]octan-6-one] | 48 |  | 5 |  | 
22 | CN(C)[C@]1(c2ccccc2)C[C@@]2(CN(c3cnc(C#N)c(C(F)(F)F)c3)C(=O)N2CC2CC2)C1 [SC-40, Cis-5-[5-(cyclopropylmethyl)-2-(dimethylamino)-6-oxo-2-phenyl-5,7-diazaspiro[3.4]octan-7-yl]-3-(trifluoromethyl)pyridine-2-carbonitrile] | 102 |  | 6 |  | 
23 | CN(C)[C@]1(c2cccc(F)c2)C[C@@]2(CN(Cc3ccc(N4CCOCC4)cc3)C(=O)N2)C1 [SC-41, cis-2-(dimethylamino)-2-(3-fluorophenyl)-7-(4-morpholinobenzyl)-5,7-diazaspiro[3.4]octan-6-one] | 465 | 21 |  |  | 
24 | CN(C)[C@]1(c2cccc(F)c2)C[C@@]2(CN(CC3(O)CCC3)C(=O)N2CC2CC2)C1 [SC-42, Cis-5-(cyclopropylmethyl)-2-(dimethylamino)-2-(3-fluorophenyl)-7-[(1-hydroxycyclobutyl)methyl]-5,7-diazaspiro[3.4]octan-6-one] | 125 |  | 21 |  | 
25 | CN(C)[C@]1(c2ccccc2)C[C@@]2(CN(c3cnc(-c4ccncc4)nc3)C(=O)N2CC2CC2)C1 [SC-43, Cis-5-(cyclopropylmethyl)-2-(dimethylamino)-2-phenyl-7-(2-pyridin-4-ylpyrimidin-5-yl)-5,7-diazaspiro[3.4]octan-6-one] | 83 |  | 31 |  | 
